One assay concerns the target full-length human BTK (Homo sapiens (Human), UniProt Q06187). The experiment in a line: BTK IC50 Enzyme Assay (microfluidic off-chip mobility shift kinase assay).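 Also: Read-out separates phosphorylated peptide product from substrate by their charge-to-mass difference, with IC50 fitted from log inhibitor concentration against percent enzyme activity.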 The format is biochemical. Particulars: Btk Enzymatic IC50 Assay, 90 min at 27 C.
The target of the next assay is Btk (Homo sapiens (Human), UniProt Q06187). The experiment in a line: Btk PBMC IC50 Cell Assay (anti-IgM-induced CD69 expression on B cells).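 Also: freshly isolated human PBMCs, IC50 from concentration-response of the share of CD19+ cells expressing CD69 after anti-IgM BCR stimulation.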 The format is cell-based. Particulars: anti-IgM-induced CD69 expression on CD19 positive cells in human PBMCs.
Btk, sequence (Q06187 whole entry): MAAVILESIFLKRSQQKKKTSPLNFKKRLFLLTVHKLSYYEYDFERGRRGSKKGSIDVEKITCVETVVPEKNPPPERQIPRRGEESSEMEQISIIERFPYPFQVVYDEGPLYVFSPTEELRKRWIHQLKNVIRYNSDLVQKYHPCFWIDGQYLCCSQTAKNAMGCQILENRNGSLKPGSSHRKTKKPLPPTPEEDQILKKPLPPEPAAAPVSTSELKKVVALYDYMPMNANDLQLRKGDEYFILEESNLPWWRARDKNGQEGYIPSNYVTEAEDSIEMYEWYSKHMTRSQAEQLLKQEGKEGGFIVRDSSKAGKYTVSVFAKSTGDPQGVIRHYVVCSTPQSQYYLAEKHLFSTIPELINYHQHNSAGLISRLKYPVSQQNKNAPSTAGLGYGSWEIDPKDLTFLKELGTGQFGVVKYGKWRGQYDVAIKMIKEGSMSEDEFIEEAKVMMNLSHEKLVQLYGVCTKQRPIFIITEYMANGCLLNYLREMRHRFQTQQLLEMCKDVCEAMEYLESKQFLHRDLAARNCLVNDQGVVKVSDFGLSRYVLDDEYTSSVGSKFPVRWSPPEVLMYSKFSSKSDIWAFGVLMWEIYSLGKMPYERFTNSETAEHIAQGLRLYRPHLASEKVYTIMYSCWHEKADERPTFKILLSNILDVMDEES

A value given as a limit tells only on which side of the number the result lay.

full-length human BTK, sequence (Q06187 whole entry): as above

A word on the IC50: it is the midpoint of a concentration-inhibition curve. Turning to `Cc1nn(C(C)C)cc1-c1nc2c(-c3ccc4c(c3)CCCC[C@H]4NC(=O)c3noc(C(C)(C)C)n3)ccnc2[nH]1` [Compound 61, 5-tert-Butyl-[1,2,4]oxadiazole-3-carboxylic acid {(R)-2-[2-(1-isopropyl-3-methyl-1H-pyrazol-4-yl)-3H-imidazo[4,5-b]pyridin-7-yl]-6,7,8,9-tetrahydro-5H-benzocyclohepten-5-yl}-amide], the results for the IC50 at full-length human BTK and at Btk were below 1 nM and 1 to 10 nM, respectively.
In the same order, the values of `Cc1nn(C(C)C)cc1-c1nc2c(-c3ccc4c(c3)CCCC[C@@H]4NC(=O)c3noc(C(C)(C)C)n3)ccnc2[nH]1` [Compound 62, 5-tert-Butyl-[1,2,4]oxadiazole-3-carboxylic acid {(S)-2-[2-(1-isopropyl-3-methyl-1H-pyrazol-4-yl)-3H-imidazo[4,5-b]pyridin-7-yl]-6,7,8,9-tetrahydro-5H-benzocyclohepten-5-yl}-amide] are 1 to 10 nM and 10 to 100 nM.
Regarding `Cc1nn(C(C)C)cc1-c1nc2c(-c3ccc4c(c3)CCCC[C@H]4NC(=O)c3nc(C(C)(C)C)no3)ccnc2[nH]1` [Compound 63, 3-tert-Butyl-[1,2,4]oxadiazole-5-carboxylic acid {(R)-2-[2-(1-isopropyl-3-methyl-1H-pyrazol-4-yl)-3H-imidazo[4,5-b]pyridin-7-yl]-6,7,8,9-tetrahydro-5H-benzocyclohepten-5-yl}-amide], the values for the IC50 at full-length human BTK and against Btk were below 1 nM and 1 to 10 nM, respectively.
In the same order, the values of `Cc1nn(C)cc1-c1nc2c(-c3ccc4c(c3)CCCC4NC(=O)c3nc(C(C)(C)C)no3)ccnc2[nH]1` (centres unmarked) [Compound 67, 3-tert-Butyl-[1,2,4]oxadiazole-5-carboxylic acid {6-[2-(1,3-dimethyl-1H-pyrazol-4-yl)-3H-imidazo[4,5-b]pyridin-7-yl]-1,2,3,4-tetrahydro-naphthalen-1-yl}-amide] are below 1 nM and 10 to 100 nM.
In the same order, the values of `Cc1nn(C)c(C)c1-c1nc2c(-c3ccc4c(c3)CCCC4NC(=O)c3nc(C(C)(C)C)no3)ccnc2[nH]1` (centres unmarked) [Compound 68, 3-tert-Butyl-[1,2,4]oxadiazole-5-carboxylic acid {6-[2-(1,3,5-trimethyl-1H-pyrazol-4-yl)-3H-imidazo[4,5-b]pyridin-7-yl]-1,2,3,4-tetrahydro-naphthalen-1-yl}-amide] are 1 to 10 nM and 10 to 100 nM.
In the same order, the values of `Cc1nn(C)c(C)c1-c1nc2nccc(-c3ccc4c(c3)CCCC[C@@H]4NC(=O)c3cc(C(C)(C)C)on3)c2[nH]1` [Compound 71, 5-tert-butyl-N-[(5S)-2-[2-(1,3,5-trimethyl-1H-pyrazol-4-yl)-1H-imidazo[4,5-b]pyridin-7-yl]-6,7,8,9-tetrahydro-5H-benzo[7]annulen-5-yl]-1,2-oxazole-3-carboxamide] are 1 to 10 nM and 10 to 100 nM.
Consider `Cc1nn(C)c(C)c1-c1nc2c(-c3ccc4c(c3)CCC[C@@H]4NC(=O)c3nc(C(C)(C)C)no3)ccnc2[nH]1` [Compound 73, 3-tert-butyl-N-[(1S)-6-[2-(1,3,5-trimethyl-1H-pyrazol-4-yl)-3H-imidazo[4,5-b]pyridin-7-yl]-1,2,3,4-tetrahydronaphthalen-1-yl]-1,2,4-oxadiazole-5-carboxamide], for which the IC50 at full-length human BTK and against Btk was 1 to 10 nM each time.
For `CC(C)(C)c1noc(C(=O)N[C@@H]2CCCc3cc(-c4ccnc5[nH]c(-c6cnn(C7CC7)c6)nc45)ccc32)n1` [Compound 75, 3-tert-butyl-N-[(1R)-6-[2-(1-cyclopropyl-1H-pyrazol-4-yl)-3H-imidazo[4,5-b]pyridin-7-yl]-1,2,3,4-tetrahydronaphthalen-1-yl]-1,2,4-oxadiazole-5-carboxamide], the IC50 on full-length human BTK is below 1 nM; against Btk, 1 to 10 nM.
In the same order, the values of `Cc1nn(C(C)C)cc1-c1nc2nccc(-c3ccc4c(c3)CCCC[C@@H]4NC(=O)c3nnc(C(C)(C)C)o3)c2[nH]1` [Compound 77, 5-tert-butyl-N-[(5S)-2-{2-[3-methyl-1-(propan-2-yl)-1H-pyrazol-4-yl]-1H-imidazo[4,5-b]pyridin-7-yl}-6,7,8,9-tetrahydro-5H-benzo[7]annulen-5-yl]-1,3,4-oxadiazole-2-carboxamide] are 1 to 10 nM and 10 to 100 nM.
In the same order, the values of `Cc1c(-c2nc3nccc(-c4ccc5c(c4)CCCC[C@@H]5NC(=O)c4nnc(C(C)(C)C)o4)c3[nH]2)cnn1C1CCOCC1` [Compound 80, 5-tert-butyl-N-[(5S)-2-{2-[5-methyl-1-(oxan-4-yl)-1H-pyrazol-4-yl]-1H-imidazo[4,5-b]pyridin-7-yl}-6,7,8,9-tetrahydro-5H-benzo[7]annulen-5-yl]-1,3,4-oxadiazole-2-carboxamide] are 1 to 10 nM and above 100 nM.
For `CC(C)n1cc(-c2nc3nccc(-c4ccc5c(c4)CCCC[C@H]5NC(=O)c4nc(C(C)(C)C)no4)c3[nH]2)cn1` [Compound 82], the IC50 at full-length human BTK and against Btk was below 1 nM each time.
Regarding `Cc1c(-c2nc3c(-c4ccc5c(c4)CCCCC5NC(=O)c4nnc(C(C)(C)C)o4)ccnc3[nH]2)cnn1C(C)C` (centres unmarked) [Compound 84, 5-tert-butyl-N-(2-{2-[5-methyl-1-(propan-2-yl)-1H-pyrazol-4-yl]-3H-imidazo[4,5-b]pyridin-7-yl}-6,7,8,9-tetrahydro-5H-benzo[7]annulen-5-yl)-1,3,4-oxadiazole-2-carboxamide], the concentration for half-maximal inhibition (IC50) at full-length human BTK is below 1 nM; on Btk, 1 to 10 nM.
In the same order, the values of `CCn1ncc(-c2nc3c(-c4ccc5c(c4)CCCCC5NC(=O)c4nc(C(C)(C)C)no4)ccnc3[nH]2)c1C` (centres unmarked) [Compound 85, 3-tert-butyl-N-{2-[2-(1-ethyl-5-methyl-1H-pyrazol-4-yl)-3H-imidazo[4,5-b]pyridin-7-yl]-6,7,8,9-tetrahydro-5H-benzo[7]annulen-5-yl}-1,2,4-oxadiazole-5-carboxamide] are below 1 nM and 1 to 10 nM.
In the same order, the values of `Cc1nn(C(C)C)c(C)c1-c1nc2c(-c3ccc4c(c3)CCCC[C@H]4NC(=O)c3nnc(C(C)(C)C)o3)ccnc2[nH]1` [Compound 87, 5-tert-butyl-N-[(5R)-2-{2-[3,5-dimethyl-1-(propan-2-yl)-1H-pyrazol-4-yl]-3H-imidazo[4,5-b]pyridin-7-yl}-6,7,8,9-tetrahydro-5H-benzo[7]annulen-5-yl]-1,3,4-oxadiazole-2-carboxamide] are below 1 nM and 1 to 10 nM.
In the same order, the values of `Cc1nn(C(C)C)c(C)c1-c1nc2c(-c3ccc4c(c3)CCCC[C@@H]4NC(=O)c3nnc(C(C)(C)C)o3)ccnc2[nH]1` [Compound 88, 5-tert-butyl-N-[(5S)-2-{2-[3,5-dimethyl-1-(propan-2-yl)-1H-pyrazol-4-yl]-3H-imidazo[4,5-b]pyridin-7-yl}-6,7,8,9-tetrahydro-5H-benzo[7]annulen-5-yl]-1,3,4-oxadiazole-2-carboxamide] are 1 to 10 nM and above 100 nM.
Consider `CCc1cc(-c2nc3nccc(-c4ccc5c(c4)CCCC[C@H]5NC(=O)c4nnc(C(C)(C)C)o4)c3[nH]2)nn1C` [Compound 90, 5-tert-butyl-N-[(5R)-2-[2-(5-ethyl-1-methyl-1H-pyrazol-3-yl)-1H-imidazo[4,5-b]pyridin-7-yl]-6,7,8,9-tetrahydro-5H-benzo[7]annulen-5-yl]-1,3,4-oxadiazole-2-carboxamide], for which the half-inhibitory concentration (IC50) on full-length human BTK lay within 1 to 10 nM; on Btk, 10 to 100 nM.
In the same order, the values of `Cn1cc(-c2nc3c(-c4ccc5c(c4)CCCC5NC(=O)c4nnc(C(C)(C)C)o4)ccnc3[nH]2)cn1` (centres unmarked) [Compound 104, 5-tert-Butyl-[1,3,4]oxadiazole-2-carboxylic acid {6-[2-(1-methyl-1H-pyrazol-4-yl)-3H-imidazo[4,5-b]pyridin-7-yl]-1,2,3,4-tetrahydro-naphthalen-1-yl}-amide] are 1 to 10 nM and 10 to 100 nM.
In the same order, the values of `CC(C)n1cc(-c2nc3c(-c4ccc5c(c4)CCCCC5NC(=O)c4nc(C(C)(C)C)no4)ccnc3[nH]2)cn1` (centres unmarked) [Compound 106, 3-tert-Butyl-[1,2,4]oxadiazole-5-carboxylic acid {2-[2-(1-isopropyl-1H-pyrazol-4-yl)-3H-imidazo[4,5-b]pyridin-7-yl]-6,7,8,9-tetrahydro-5H-benzocyclohepten-5-yl}-amide] are below 1 nM and 1 to 10 nM.
In the same order, the values of `Cn1ccc(-c2nc3c(-c4ccc5c(c4)CCCCC5NC(=O)c4nc(C(C)(C)C)no4)ccnc3[nH]2)n1` (centres unmarked) [Compound 109, 3-tert-Butyl-[1,2,4]oxadiazole-5-carboxylic acid {2-[2-(1-methyl-1H-pyrazol-3-yl)-3H-imidazo[4,5-b]pyridin-7-yl]-6,7,8,9-tetrahydro-5H-benzocyclohepten-5-yl}-amide] are below 1 nM and below 1 nM.
Consider `Cc1cc(-c2nc3c(-c4ccc5c(c4)CCCCC5NC(=O)c4nc(C(C)(C)C)no4)ccnc3[nH]2)nn1C` (centres unmarked) [Compound 110, 3-tert-Butyl-[1,2,4]oxadiazole-5-carboxylic acid {2-[2-(1,5-dimethyl-1H-pyrazol-3-yl)-3H-imidazo[4,5-b]pyridin-7-yl]-6,7,8,9-tetrahydro-5H-benzocyclohepten-5-yl}-amide], for which the half-inhibitory concentration (IC50) at full-length human BTK was below 1 nM; against Btk it was 1 to 10 nM.
In the same order, the values of `Cc1cc(-c2nc3c(-c4ccc5c(c4)CCCC5NC(=O)c4nc(C(C)(C)C)no4)ccnc3[nH]2)nn1C(C)C` (centres unmarked) [Compound 112, 3-tert-Butyl-[1,2,4]oxadiazole-5-carboxylic acid {6-[2-(1-isopropyl-5-methyl-1H-pyrazol-3-yl)-3H-imidazo[4,5-b]pyridin-7-yl]-1,2,3,4-tetrahydro-naphthalen-1-yl}-amide] are 1 to 10 nM and 10 to 100 nM.
As for `Cc1cc(-c2nc3c(-c4ccc5c(c4)CCCCC5NC(=O)c4nc(C5(C)CC5)no4)ccnc3[nH]2)nn1C(C)C` (centres unmarked) [Compound 117, 3-(1-Methyl-cyclopropyl)-[1,2,4]oxadiazole-5-carboxylic acid {2-[2-(1-isopropyl-5-methyl-1H-pyrazol-3-yl)-3H-imidazo[4,5-b]pyridin-7-yl]-6,7,8,9-tetrahydro-5H-benzocyclohepten-5-yl}-amide], the IC50 on full-length human BTK is below 1 nM; against Btk, 1 to 10 nM.
